Data: patent US20260232629A1, “Covalent Degraders of Oncogenic Transcription Factors” (The Regents of the University of California, priority 2023, published 2026)

Assays:
[1] = target: T1, CTNNB1 with a N-terminal HiBiT tag (Homo sapiens, UniProt P35222); experiment: CTNNB1 HiBiT cell line assay (Nano-Glo HiBiT lytic detection); assay type: cell-based; conditions: HEK293 cells expressing endogenous N-terminal HiBiT-tagged CTNNB1
T1 construct: N-terminal HiBiT tag incorporated into the endogenous loci of CTNNB1; host or cells: HEK293 (CTNNB1 HiBiT knock-in line)
T1 sequence (P35222 1-781): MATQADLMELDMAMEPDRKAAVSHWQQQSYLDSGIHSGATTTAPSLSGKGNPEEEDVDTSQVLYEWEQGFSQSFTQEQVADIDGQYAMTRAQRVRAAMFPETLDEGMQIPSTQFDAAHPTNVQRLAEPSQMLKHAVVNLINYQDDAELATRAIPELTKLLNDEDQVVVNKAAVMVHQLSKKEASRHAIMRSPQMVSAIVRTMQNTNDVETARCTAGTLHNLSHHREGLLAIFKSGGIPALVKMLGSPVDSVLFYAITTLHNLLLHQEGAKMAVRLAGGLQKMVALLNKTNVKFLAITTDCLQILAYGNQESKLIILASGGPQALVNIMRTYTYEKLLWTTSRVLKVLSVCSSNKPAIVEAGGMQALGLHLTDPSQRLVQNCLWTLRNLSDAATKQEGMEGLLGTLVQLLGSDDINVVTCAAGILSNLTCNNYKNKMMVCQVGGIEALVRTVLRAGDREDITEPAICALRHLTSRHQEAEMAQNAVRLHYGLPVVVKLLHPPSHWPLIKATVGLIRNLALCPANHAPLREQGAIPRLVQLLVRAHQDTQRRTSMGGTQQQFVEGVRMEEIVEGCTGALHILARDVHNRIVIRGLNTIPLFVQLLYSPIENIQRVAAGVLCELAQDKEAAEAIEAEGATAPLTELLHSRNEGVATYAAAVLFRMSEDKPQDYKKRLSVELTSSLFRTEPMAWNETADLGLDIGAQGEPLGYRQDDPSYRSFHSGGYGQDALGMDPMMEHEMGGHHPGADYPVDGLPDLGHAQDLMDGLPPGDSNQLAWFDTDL
Experimental: To identify a covalent degrader of CTNNB1, we screened a library of 2100 cysteine-reactive covalent ligands consisting of acrylamides and chloroacetamides in HEK293 cells expressing CTNNB1 with a N-terminal HiBiT tag incorporated into the endogenous loci of CTNNB1. We identified 17 hits lowered CTNNB1 levels.
Covalent ligand screen and dose responses were conducted using Promega Nano-Glo HiBiT Lytic Detection System (N3040) and CellTiter-Glo 2.0 Assay (G9242). HiBiT cells were seeded into 96-well plates (Corning 3917) at 35,000 cells per 100 μL of media and were left overnight to adhere. Cells were treated with 25 μL of media containing 1:125 dilution from a 1000×DMSO compound stock and treated for either 6 hrs, 12 hrs, or 24 hrs. […] 125 μL of CTG or Lytic detection system reagents were added to each well. To assess the cells in the supernatant, half of the plates had the media removed prior to the addition of CTG or lytic detection system reagents. Plates were rocked for 15 minutes prior to their luminescence readout on the Tecan Spark Plate reader (30086376).

[2] = target: T2, pure human CTNNB1 protein (Homo sapiens, UniProt P35222); experiment: Gel-based ABPP with CTNNB1 pure protein (IA-Rhodamine displacement); assay type: binding; conditions: displacement of cysteine-reactive fluorescent probe
T2 sequence (P35222 1-781): T1 sequence (P35222 1-781)
Experimental: CTNNB1 pure protein (0.1 μg/25 μL in PBS) was treated with either DMSO vehicle or covalent ligand at 37° C. for 30 min, and subsequently treated with 0.1 μM IA-Rhodamine (Setareh Biotech) for 1 h at RT in the dark. The reaction was stopped by addition of 4×reducing Laemmli SDS sample loading buffer (Alfa Aesar). After boiling at 95° C. for 5 min, the samples were separated on precast 4-20% Criterion TGX gels (Bio-Rad) and were analyzed by in-gel fluorescence using a ChemiDoc MP (Bio-Rad).

[3] = target: T3, proteome-wide cysteine-reactivity (C619 on CTNNB1) (Homo sapiens, UniProt P35222); experiment: isoDTB-ABPP, proteome-wide cysteine-reactivity in cells; assay type: cell-based
T3 construct: endogenous in cells
T3 sequence (P35222 1-781): T1 sequence (P35222 1-781)
Source text: We next wanted to confirm that EN83 engages CTNNB1 in cells. […] We next performed a mass spectrometry-based ABPP or isodesthiobiotin-ABPP (isoDTB-ABPP) to map overall proteome-wide cysteine-reactivity of EN83 in cells using previously established methods. […] Among the off-targets of EN83, none of the targets were within the Wnt signaling pathway, including AXIN1, BTRC, or GSK3A or GSK3B.

CTNNB1 [4] = target: T4, CTNNB1 (Homo sapiens, UniProt P35222); experiment: Cellular thermal shift assay; assay type: cell-based; conditions: cellular treatment
T4 construct: endogenous in cells; host or cells: HEK293T, HT29, COLO-201, SW480
T4 sequence (P35222 1-781): T1 sequence (P35222 1-781)

[5] = system: FLAG-tagged wild-type, C439S, C466S, C520S, or C619S mutant CTNNB1; experiment: Degradation of FLAG-tagged wild-type or cysteine-to-serine mutant CTNNB1 in cells; assay type: cell-based; conditions: FLAG-tagged CTNNB1 wild-type vs C439S
Source text: We next sought to confirm the contributions of the cysteines targeted by EN83 in CTNNB1 to CTNNB1 degradation.

CTNNB1 [6] = target: T4, CTNNB1; experiment: Western blotting of CTNNB1 in cells; assay type: cell-based; conditions: proteasome dependence
Experimental: Pelleted cells are lysed with CST buffer containing protease inhibitor cocktail (Pierce A32955). Samples were centrifuged at 20,000 g for 20 min at 4° C. to remove cell debris. Samples' protein content was normalized to run 30 μg per well. Samples were then boiled for 8 min at 90° C. after addition of 4×reducing Laemmli SDS sample loading buffer (Alfa Aesar) and ran on precast 4-20% Criterion TGX gels (Bio-Rad).
Antibodies to CTNNB1 (Cell Signaling Technology, 8814S), GAPDH (Proteintech Group Inc., 60004-1-Ig or Cell Signaling Technology, 14C10), and DDDDK tag (Abcam, ab205606) were diluted per recommended manufacturers' procedures. Proteins were resolved by SDS/PAGE and transferred to nitrocellulose membranes using the BioRad system (1704271 and 1704150). Blots were blocked with 5% BSA in Tris-buffered saline containing Tween 20 (TBST) solution for 1 hour at room temperature, washed in TBST, and probed with primary antibody diluted in recommended diluent per manufacturer overnight at 4° C. Following washes with TBST, the blots were incubated in the dark with secondary antibodies purchased from Ly-Cor and used at 1:10,000 dilution in 5% BSA in TBST at room temperature. Blots were visualized using an Odyssey Li-Cor scanner after additional washes. If additional primary antibody incubations were required the membrane was stripped using ReBlot Plus Strong Antibody Stripping Solution (EMD Millipore, 2504), washed and blocked again before being reincubated with primary antibody.

CTNNB1 pure protein = target: T5, CTNNB1 pure protein (Homo sapiens, UniProt P35222); experiment: NF686 probe labeling on CTNNB1 pure protein; assay type: binding; conditions: alkyne probe, click to fluorescent azide, in-gel fluorescence
T5 sequence (P35222 1-781): T1 sequence (P35222 1-781)
Experimental: CTNNB1 pure protein (0.2 μg/50 μL in PBS) was treated with either DMSO vehicle or NF686 at 37° C. for 30 min. Click reagents Azide-Fluor 545 (Click Chemistry Tools, Inc. AZ109-5), Copper (II) Sulfate, and TBTA (TCI Chemicals, T2993) were added to have a final concentration of 21.8 μM, 873.4 μM, and 47.2 μg/mL, respectively, for 1 hr at RT in the dark. The reaction was stopped by addition of 4×reducing Laemmli SDS sample loading buffer (Alfa Aesar). After boiling samples at 95° C. for 5 min, the samples were separated on precast 4-20% Criterion TGX gels (Bio-Rad). Probe-labeled proteins were analyzed by in-gel fluorescence using a ChemiDoc MP (Bio-Rad).

CTNNB1 [7] = target: T4, CTNNB1; experiment: Alkyne probe enrichment of CTNNB1 from cells; assay type: cell-based; conditions: in cells; GAPDH as unrelated target

| CTNNB1 protein levels by Western blotting (CTNNB1 [6]) | Structure (SMILES) | CTNNB1 HiBiT levels [1] | binding to CTNNB1 by gel-based ABPP [2] | other results |
| --- | --- | --- | --- | --- |
| – | COc1ccc(OC)c(C2CCCN2C(=O)CCl)c1 (racemic) [EN83] | dose-responsive CTNNB1 loss that was significantly attenuated by proteasome or NEDDylation inhibition | dose-responsively displaced cysteine-reactive fluorescent probe labeling of pure human CTNNB1 protein | number of other targets significantly engaged by over 50% ([3]; among 8251 cysteines detected and quantified, three biological replicates): 139; proteome-wide selectivity ([3]; isoDTB-ABPP in cells): only moderately selective; engagement of CTNNB1 cysteine in cells ([3]; isoDTB-ABPP, three biological replicates): significantly engaged C619 on CTNNB1; thermal stability of CTNNB1 in cells (CTNNB1 [4]): significant thermal destabilization of CTNNB1 in cells; effect of cysteine mutation on CTNNB1 degradation [5]: mutation of C466, C520, or C619, but not C439, to serines significantly attenuated CTNNB1 degradation in cells |
| does not alter CTNNB1 levels | CCC(=O)N1CCCC1c1cc(OC)ccc1OC (stereo not drawn) [NF602, 1-(2-(2,5-dimethoxyphenyl)pyrrolidin-1-yl)propan-1-one] | does not alter CTNNB1 levels | does not show binding to CTNNB1 | – |
| – | C#CCCCNC(=O)c1ccc(OC)c([C@@H]2CCCN2C(=O)CCl)c1 [NF686, (S)-3-(1-(2-chloroacetyl)pyrrolidin-2-yl)-4-methoxy-N-(pent-4-yn-1-yl)benzamide] | – | – | direct probe labeling of pure CTNNB1 protein (CTNNB1 pure protein): direct covalent dose-responsive probe labeling of pure CTNNB1 protein; enrichment of CTNNB1 from cells with alkyne probe (CTNNB1 [7]): CTNNB1 could be enriched from cells with the probes without enriching unrelated targets such as GAPDH |
| confirmed to be proteasome-dependent | COc1ccc(C(F)(F)F)cc1C1CCCN1C(=O)CCl (stereo not drawn) [NF740, 2-chloro-1-(2-(2-methoxy-5-(trifluoromethyl)phenyl)pyrrolidin-1-yl)ethan-1-one] | lowering CTNNB1 HiBiT levels in HEK293 cells in a dose-responsive manner | tolerated | – |
| confirmed to be proteasome-dependent | COc1ccc(C(F)(F)F)c(C2CCCN2C(=O)CCl)c1 (stereo not drawn) [NF741, 2-chloro-1-(2-(5-methoxy-2-(trifluoromethyl)phenyl)pyrrolidin-1-yl)ethan-1-one] | lowering CTNNB1 HiBiT levels in HEK293 cells in a dose-responsive manner | tolerated | – |

| Structure (SMILES) | CTNNB1 protein levels by Western blotting (CTNNB1 [6]) | CTNNB1 HiBiT levels [1] | binding to CTNNB1 by gel-based ABPP [2] | other results |
| --- | --- | --- | --- | --- |
| COc1ccc(C(F)(F)F)c(C2CCCN2C(=O)/C=C/C(=O)c2ccccc2)c1 (stereo not drawn) [NF764, (E)-1-(2-(5-methoxy-2-(trifluoromethyl)phenyl)pyrrolidin-1-yl)-4-phenylbut-2-ene-1,4-dione] | lowered CTNNB1 protein levels in cells in a proteasome-dependent manner | more potent loss of CTNNB1 HiBiT levels | improved CTNNB1 binding | – |
| COc1ccc(C(F)(F)F)cc1C1CCCN1C(=O)/C=C/C(=O)c1ccccc1 (stereo not drawn) [NF765, (E)-1-(2-(2-methoxy-5-(trifluoromethyl)phenyl)pyrrolidin-1-yl)-4-phenylbut-2-ene-1,4-dione] | lowered CTNNB1 protein levels in cells in a proteasome-dependent manner | more potent loss of CTNNB1 HiBiT levels | improved CTNNB1 binding | – |
